Laboratory results taken from paper PMC5522078, “Discovery and characterization of small molecules targeting the DNA-binding ETS domain of ERG in prostate cancer” (Oncotarget, 2017).

Assays:
PNT1B-ERG cells [1] = assay: Real time cell migration (xCELLigence), PNT1B cells; assay type: cell-based, human; settings: 5 μM
Method: Cell migration was monitored using CIM-16 migration plates via the xCELLigence platform (ACEA). FBS-supplemented media (160 μL) was added to the lower chamber of the plate and incubated at RT for 30 min. The upper chamber was then mounted and 30 μL of serum free media (SFM) was added to each well and left to equilibrate in the incubator for 1 h at 37°C. After the incubation, a background reading was taken for each well. […] Real time readings of cell index values were recorded initially every 5 min until the end of the experiment (48 hr).

zebrafish embryos = assay: Compound toxicity to zebrafish embryos; assay type: in vivo
PC3 cells = test system: PC3 cells; design: method as in PMID 21559405; settings: read-out: IC50 for cytotoxicity in PC3 cells; cited from earlier work
PNT1B-ERG spheroids = assay: 3D spheroid invasion assay; assay type: cell-based, human; settings: compared to vehicle control
Method: 3D Spheroid BME Cell Invasion Assay (Trevigen) was performed as per manufacturer's instructions. […] Spheroids were then incubated at 37°C for 3 to 7 days, and photographed using Zeiss AxioObserver Z1 microscope in each well on the day of invasion mix addition and every two days following. Spheroids were retreated with 50 μL of vehicle control or compound after 72 hr.

PNT1B-ERG cells [2] = assay: MTS cell viability assay, PNT1B-ERG; assay type: cell-based, human; settings: 72 h
Method: 3-(4,5-dimethylthiazol-2-yl)-5-(3-carboxymethoxyp henyl)-2-(4-sulfophenyl)-2H-tetrazolium, inner salt (MTS). Cells were seeded at a density of 3000 cells per well (except VCaP at 20,000/well) in 100 μL of appropriate media in 96 well culture dishes. Twenty four hours later, 100 μL of medium containing vehicle control or compounds. Each treatment was prepared in triplicate. After a 72 h treatment, cellular viability was assessed using CellTiter 96 ® Aqueous One Solution Cell Proliferation Assay reagent (Promega) according to the manufacturer's instructions. Values were normalized to the DMSO control.

ERG = molecular target: T1, ERG (Homo sapiens, UniProt P11308); assay: Dual reporter luciferase assay (pETS-luc) in PNT1B-ERG cells; assay type: cell-based; settings: 0.1-100 μM, 48 h treatment
T1 construct: expressed in transfected cells; host or cells: PNT1B-ERG (immortalized prostatic epithelial PNT1B cells stably overexpressing ERG)
T1 sequence (P11308 1-479): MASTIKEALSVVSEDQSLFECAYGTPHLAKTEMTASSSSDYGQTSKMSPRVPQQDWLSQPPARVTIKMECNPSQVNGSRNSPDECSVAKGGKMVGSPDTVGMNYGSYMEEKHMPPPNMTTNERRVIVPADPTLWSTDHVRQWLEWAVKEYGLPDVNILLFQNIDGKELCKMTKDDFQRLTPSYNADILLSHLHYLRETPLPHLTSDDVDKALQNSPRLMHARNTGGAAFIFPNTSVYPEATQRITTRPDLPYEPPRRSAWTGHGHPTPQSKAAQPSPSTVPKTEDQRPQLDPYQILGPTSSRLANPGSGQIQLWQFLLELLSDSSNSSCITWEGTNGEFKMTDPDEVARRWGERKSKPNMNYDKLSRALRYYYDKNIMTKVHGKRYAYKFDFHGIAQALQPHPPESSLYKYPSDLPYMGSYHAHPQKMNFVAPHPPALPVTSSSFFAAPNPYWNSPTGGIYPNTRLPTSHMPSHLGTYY
Method: All of the compounds selected from the virtual screening were tested in a luciferase-based ERG-responsive reporter assay, using two ERG-overexpressing cell lines, VCaP and PNT1B-ERG, previously developed in house. […] Data were normalized first to Renilla luciferase and then to the DMSO-media control on each plate, unless otherwise stated. Initial hit compounds were identified as those with an average normalized luciferase reading (firefly luciferase/Renilla luciferase readings) that is 60% or less of the average normalized luciferase reading of the DMSO-media control (i.e. 40% or more reduction of luciferase activity) at 10 μM. Representative example of raw Renilla luciferase readings presented in Supplementary Figure 9B. The luciferase assays were repeated for each lead compound under multiple concentrations (0.1 to 100 μM) to establish a dose-dependent response and an IC50 value. AR reporter assay was performed as previously described.

PNT1B-ERG cells [3] = assay: Real time growth assay (Incucyte confluence); assay type: cell-based, human; settings: 1, 5 or 15 µM; 168 h
Method: www.impactjournals.com/oncotarget/ Oncotarget Supplementary Materials
Discovery and characterization of small molecules targeting the DNA-binding ETS domain of ERG in prostate cancer […]
samples where less saturation of MS data is expected. This […]
and gives reasonable estimates when the use of MS […]
sulfoxide (DMSO) were diluted 1,000× into methanol
The (Gibco), then underwent APC BrdU Flow Kit protocol
Cells were analysed on a FACSCanto™
Data was analyzed using FlowJo
Eppendorf tubes. Saturated PBS samples were further software (TreeStar, USA). Biological replicates were diluted with an equal volume of PBS. Aliquots of these analysed statistically by Two-Way ANOVA. […]
the dark. Aliquots taken at later time points were vortex mixed for 1 h prior to sampling. MeOH and diluted PBS Proliferation/cell viability assay […]
were extracted with two volumes acetonitrile (ACN) and centrifuged at 20,000 g for 5 min.
After 24 h, plates were treated with vehicle control, […]
and a Quattro Premier (Waters).
2points/sec were collected with the PDA. The sampler expression datasets from PCa patients […]
represent the mean ± SEM of triplicate experiments. […]
post hoc test. […] The G0–G1 phase
Growth assay of PNT1B-ERG cells

ETS domain of PU.1 = ETS domain of PU.1 (Homo sapiens, UniProt P17947); assay: Preliminary NMR spectroscopic experiments, PU.1; assay type: binding

Row | Structure (SMILES) | Cytotoxicity in migration assay (PNT1B-ERG cells [1]; PNT1B-MOCK and PNT1B-ERG cells) | Concentrations at which embryos exhibited toxicity (zebrafish embryos) | IC50 (PC3 cells) | Rate of spheroid invasion between day 2 and 6 (PNT1B-ERG spheroids) | Doses with inhibition of cell viability (MTS), PNT1B-ERG (PNT1B-ERG cells [2]) | IC50 (ERG) | Effect on proliferation / cell growth (real time cell analysis) (PNT1B-ERG cells [3]) | Rate of migration of PNT1B-ERG cells (PNT1B-ERG cells [1]; 24 h exposure, relative to vehicle) | Concentration at which embryos remained viable (zebrafish embryos; 72 h) | Interaction with the ETS domain of PU.1 (ETS domain of PU.1) | Effect on cell viability (MTS), PNT1B-ERG (PNT1B-ERG cells [2]; 0.2–25 μM)
1 | COc1ccc(C(=O)CC2(O)C(=O)Nc3c(Cl)ccc(Cl)c32)cc1 (centres unmarked) [YK-4-279, reference compound] | cytotoxicity in both cell lines | > 10 µM | > 100 µM | significantly reduced | ≥ 5 µM | 5 µM | dose-dependent effect | – | – | – | –
2 | CC(C)c1ccc(C=N/N=C2\NC(=O)[C@@H](CC(=O)O)S2)cc1 (stereo in doubt) [VPC-18005, 2-((Z)-2-(((Z)-4-isopropylbenzylidene)hydrazono)-4-oxothiazolidin-5-yl)acetic acid] | – | – | – | significantly reduced | – | 3 µM | did not suppress proliferation or induce cell death | significantly reduced | up to 50 μM | interacts | did not decrease viability
